Values quoted from earlier work in patent US20100047343A1, “MULTIPARTICULATE FORMULATION HAVING TRAMADOL IN IMMEDIATE AND CONTROLLED RELEASE FORM” (The University of Kansas, priority 2006, published 2010).
Where a name gives a salt, the structure may show the parent alone. Read-outs that look alike come from different tables or passages of the source.

Tests used:
[1] = for accumulation: multiple dose treatment with tramadol HCl; for half-life: single oral dose of 100 mg
[2] = single oral dose of rapid release tramadol HCl (100 mg)
[3] = after oral administration of ULTRAM

Row | SMILES | accumulation [1] | half-life [1] | duration of the analgesic effect [2] | bioavailability [1, 3] | time to peak serum concentrations [1, 3] | solubility in water (24° C.) | density of saturated solution (37° C.) | solubility in water (37° C.) | viscosity (sat'd. sol.) (37° C.)
1 | CN(C)C[C@H]1CCCC[C@]1(O)c1cccc(O)c1 [M1 derivative] | approximately 2 fold | 9 h | – | – | – | – | – | – | –
2 | COc1cccc(C2(O)CCCCC2CN(C)C)c1 (centres unmarked) [tramadol HCl] | – | – | about 6 hours | 68% | ≤ 2 h | 790 mg/mL | 1.1079 | 840 mg/mL | 86.5 cp
3 | COc1cccc(C2(O)CCCCC2CN(C)C)c1 (centres unmarked) [tramadol] | approximately 2 fold | 5.1 h | – | – | – | – | – | – | –
